The subject of assay [1] is Rattus norvegicus. As to the kind of experiment: Central nervous system activity in ip dosed rat assessed as dose required to cause depression by measuring decreased motor activity. The assay is classed as functional.
The subject of assay [2] is Rattus norvegicus. As to the kind of experiment: Central nervous system activity in ip dosed rat assessed as dose required to cause decreased reflex action by measuring decreased grip strength. Format: functional.
Assay [3] is described as follows: (§1) Antagonist activity at dopamine receptor in Sprague-Dawley rat olfactory tubercles assessed as inhibition of adenylate cyclase activity after 5 mins. Format: tissue-based, Olfactory tubercle. The following applies: read-out: I50.
The nature of assay [4]: (§2) Antagonist activity at dopamine receptor in Sprague-Dawley rat olfactory tubercles assessed as inhibition of dopamine-induced adenylate cyclase activity after 5 mins. The assay is classed as tissue-based, Olfactory tubercle. Conditions: read-out: I50.
Assay [5] is filed under the species Rattus norvegicus. Described as §1. The assay is classed as tissue-based. The following applies: Olfactory tubercle.
Assay [6] is filed under the species Rattus norvegicus. As to the kind of experiment: Antagonist activity at dopamine receptor in Sprague-Dawley rat olfactory tubercles assessed as inhibition of adenylate cyclase activity at 100 uM after 5 mins. The following applies: Olfactory tubercle. The assay is classed as tissue-based.
For assay [7], the species on record is Rattus norvegicus. The assay is described as follows: Antagonist activity at dopamine receptor in Sprague-Dawley rat olfactory tubercles assessed as inhibition of adenylate cyclase activity at 10 uM after 5 mins. The assay is classed as tissue-based. The following applies: Olfactory tubercle.
The species named for assay [8] is Rattus norvegicus. As to the kind of experiment: Antagonist activity at dopamine receptor in Sprague-Dawley rat olfactory tubercles assessed as inhibition of dopamine-induced adenylate cyclase activity at 100 uM after 5 mins. Conditions: Olfactory tubercle. Format: tissue-based.
Assay [9] is filed under the species Rattus norvegicus. The assay is described as §2. Format: tissue-based. The following applies: Olfactory tubercle.

The source made the active and inactive calls. No cut-off for these calls is given here.

As usually defined, the inhibition is the percentage by which the read-out fell short of the control.

Take `CN(C)CCN1C(=O)C(Cc2ccccc2)Oc2ccccc21.Cl` (stereo not given): the figures for the ED in [1] and in assay [2] were over 200 mg/kg and 200 mg/kg, respectively.
In the case of `Cc1ccc2c(c1)N(CCCN(C)C)C(=O)/C(=C/c1ccccc1)O2.O=C(O)CCC(=O)O`, the ED in [1] and in assay [2] was 100 mg/kg in each case. The values for the IC50 in assay [3] and in assay [4] were 450 µM and 15 µM, respectively.
Regarding `CCN(CC)CCCN1C(=O)/C(=C/c2ccccc2)Oc2ccccc21.Cl`, the ED was 50 mg/kg in assay [1] and 12.5 mg/kg in assay [2]. Further, the IC50 in assay [3] is over 100 µM; in [4], 60 µM.
With `CN(C)CCCN1C(=O)/C(=C/c2cccs2)Oc2ccccc21.Cl`, the ED in assay [1] and in [2] was 100 mg/kg each time. Besides, the IC50 is over 200 µM in assay [3] and 56 µM in [4].
As for `CN1CCN(CCCN2C(=O)/C(=C/c3ccccc3)Oc3ccccc32)CC1.Cl`, the ED in assay [1] was 50 mg/kg; in assay [2] it was 12.5 mg/kg. Further, the IC50 is 450 µM in [3] and 35 µM in assay [4].
For the compound `CN(C)CCCN1C(=O)C(Cc2ccccc2)Oc2ccccc21.Cl` (stereo not given), the ED was found to be 100 mg/kg in assay [1] and 50 mg/kg in assay [2].
For `COc1ccc2c(c1)N(CCCN(C)C)C(=O)/C(=C/c1ccccc1)O2.Cl`, the ED in [1] and in assay [2] was over 200 mg/kg in each case. Also, the IC50 is over 100 µM in assay [3] and 60 µM in assay [4].
As for `CN1CCN(C2=Nc3cc(Cl)ccc3Nc3ccccc32)CC1` [CLOZAPINE], the I50 result in [5] is “inactive”. In addition, the IC50 in assay [4] was 6 µM. In assay [6], the inhibition was under 10%.
`CN(C)CCCCN1C(=O)/C(=C/c2ccccc2)Oc2ccccc21.Cl`: the ED in assay [1] was over 200 mg/kg; in assay [2] it was 50 mg/kg. Further, the IC50 in [3] is over 200 µM; in assay [4], 80 µM.
For the compound `CN1CCN(CCCN2C(=O)C(Cc3ccccc3)Oc3ccccc32)CC1.Cl` (stereo not given), the ED in assay [1] was over 200 mg/kg; in assay [2] it was 50 mg/kg.
As to `CN1CCN(CCCN2C(=O)/C(=C/c3ccccc3)Oc3ccc(Cl)cc32)CC1`, the ED in assay [1] and in assay [2] was over 200 mg/kg in each case. Besides, the IC50 in [3] and in assay [4] was over 500 µM each time.
Regarding `CN(C)CCCN1C(=O)/C(=C/c2ccc(Cl)cc2)Oc2ccccc21.Cl`, the ED in [1] and in assay [2] was 100 mg/kg each time. In addition, the IC50 was 450 µM in [3] and 30 µM in assay [4].
In the case of `Cl.O=C1/C(=C/c2ccccc2)Oc2ccccc2N1CCCN1CCN(CO)CC1`, the ED in assay [1] and in assay [2] was 100 mg/kg each time. The IC50 in assay [3] was over 400 µM; in assay [4], 54 µM.
As to `CN(C)CCCN1C(=O)C(Cc2ccccc2)Oc2ccc(Cl)cc21.Cl` (stereo not given), the ED in assay [1] was over 200 mg/kg; in [2], 100 mg/kg.
On to `OCCN1CCN(CCCN2c3ccccc3Sc3ccc(C(F)(F)F)cc32)CC1` [FLUPHENAZINE], for which the inhibition in assay [7] was under 10%. In addition, the I50 result in assay [5] is “inactive”. The IC50 in assay [4] is 0.5 µM.
`CN(C)CCN1C(=O)/C(=C/c2ccccc2)Oc2ccccc21.Cl`: the ED in [1] and in assay [2] was 50 mg/kg throughout. The IC50 in assay [3] is over 100 µM; in assay [4] it was 100 µM.
As to `CN(C)CCCN1C(=O)/C(=C/c2ccccc2)Oc2ccccc21.Cl`, the ED in assay [1] and in assay [2] was 25 mg/kg in each case. Moreover, the results for the IC50 in assay [3] and in assay [4] were 600 µM and 33 µM, respectively.
On to `Cl.O=C1/C(=C/c2ccccc2)Oc2ccccc2N1CCN1CCOCC1`, for which the inhibition in assay [8] and in assay [6] was under 10% in each case. For the same compound, the ED in [1] and in [2] was over 200 mg/kg in each case. Also, the I50 entry in [5] and in [9] was “inactive” each time.
Take `O=C1Nc2ccccc2O/C1=C\c1ccccc1`: the inhibition in [8] and in assay [6] was under 10% throughout. In addition, the ED in [1] and in assay [2] was over 200 mg/kg in each case. In addition, the I50 result in assay [5] and in [9] was “inactive” throughout.
Regarding `C[N+](C)(C)CCCN1C(=O)/C(=C/c2ccccc2)Oc2ccccc21.[Cl-]`, the ED in assay [1] and in [2] was 50 mg/kg each time. The IC50 in [3] is 1000 µM; in [4], 650 µM.
`CN(C)CCCN1C(=O)/C(=C/c2ccccc2)Oc2ccc(Cl)cc21.Cl`: the ED was over 200 mg/kg in [1] and 200 mg/kg in assay [2]. The IC50 was over 100 µM in assay [3] and 100 µM in assay [4].
`Cl.O=C1/C(=C/c2ccccc2)Oc2ccccc2N1CCCN1CCN(c2ccccc2)CC1`: the inhibition in assay [8] and in assay [6] was under 10% throughout. Also, the ED in [1] and in assay [2] was 100 mg/kg each time. For the same compound, the I50 result in assay [5] and in assay [9] was “inactive” in each case.
As for `CCCC(C)(COC(N)=O)COC(N)=O` [MEPROBAMATE], the ED in assay [1] amounted to 50 mg/kg; in assay [2] it was 25 mg/kg.
For `CN(C)CCCN1C(=O)/C(=C/c2ccccc2Cl)Oc2ccccc21.Cl`, the results for the ED in [1] and in [2] were over 200 mg/kg and 100 mg/kg, respectively. Further, the values for the IC50 in [3] and in assay [4] were 170 µM and 30 µM, respectively.
